Laboratory results taken from PubChem BioAssay AID2060896 (Molecular Pharmacology Branch, DTP, NCI, 2025).

Test system: 941728-121-R-J1-PDC complex spheroid viability
Assay: Anticancer human tumor 941728-121-R-J1-PDC patient-derived lung adenocarcinoma cell line growth inhibition [RAS]
Conditions: for IC50: curve of first compound; for viability, T/C: stronger effect = lower value
Summary of the method: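 Tumour cells grown as complex spheroids with HUVEC endothelial cells and mesenchymal stem cells, treated with RAS pathway inhibitor combinations. Each agent spans half-log steps from near clinical Cmax, or 10 microM where Cmax is unknown.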

[1] = second compound 0.000949 µM, first compound 0.0316 µM
[2] = second compound 0.000949 µM, first compound 0.1 µM
[3] = second compound 0.000949 µM, first compound 0.316 µM
[4] = second compound 0.000949 µM, first compound 1 µM
[5] = second compound 0.000949 µM, first compound 3.16 µM
[6] = second compound 0.000949 µM, first compound 10 µM
[7] = second compound 0.003 µM, first compound 0.0316 µM
[8] = second compound 0.003 µM, first compound 0.1 µM
[9] = second compound 0.003 µM, first compound 0.316 µM
[10] = second compound 0.003 µM, first compound 1 µM
[11] = second compound 0.003 µM, first compound 3.16 µM
[12] = second compound 0.003 µM, first compound 10 µM
[13] = second compound 0.00949 µM, first compound 0.0316 µM
[14] = second compound 0.00949 µM, first compound 0.1 µM
[15] = second compound 0.00949 µM, first compound 0.316 µM
[16] = second compound 0.00949 µM, first compound 1 µM
[17] = second compound 0.00949 µM, first compound 3.16 µM
[18] = second compound 0.00949 µM, first compound 10 µM
[19] = second compound 0.03 µM, first compound 0.0316 µM
[20] = second compound 0.03 µM, first compound 0.1 µM
[21] = second compound 0.03 µM, first compound 0.316 µM
[22] = second compound 0.03 µM, first compound 1 µM
[23] = second compound 0.03 µM, first compound 3.16 µM
[24] = second compound 0.03 µM, first compound 10 µM
[25] = second compound 0.0949 µM, first compound 0.0316 µM
[26] = second compound 0.0949 µM, first compound 0.1 µM
[27] = second compound 0.0949 µM, first compound 0.316 µM
[28] = second compound 0.0949 µM, first compound 1 µM
[29] = second compound 0.0949 µM, first compound 3.16 µM
[30] = second compound 0.0949 µM, first compound 10 µM
[31] = second compound 0.3 µM, first compound 0.0316 µM
[32] = second compound 0.3 µM, first compound 0.1 µM
[33] = second compound 0.3 µM, first compound 0.316 µM
[34] = second compound 0.3 µM, first compound 1 µM
[35] = second compound 0.3 µM, first compound 3.16 µM
[36] = second compound 0.3 µM, first compound 10 µM
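Note: spheroids exposed to compounds for 7 days before readout.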
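Throughout, for viability, T/C: 100% = DMSO vehicle control viability.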

## CC1(O)CCCC1n1c(=O)c(C(F)F)cc2cnc(NC3CCN(S(C)(=O)=O)CC3)nc21 (stereo not drawn) + CCn1c(-c2cccnc2C(C)OC)c2c3cc(ccc31)N1CCOC(CC(NC(=O)C(C(C)C)N(C)C(=O)C3(F)CCN(C(=O)C#CC(C)(C)N(C)C)CC3)C(=O)N3CCCC(N3)C(=O)OCC(C)(C)C2)C1
Second compound 0.000949 µM
  IC50: < 0.0316 µM
Second compound 0.003 µM
  IC50: < 0.0316 µM
Second compound 0.00949 µM
  IC50: < 0.0316 µM
Second compound 0.03 µM
  IC50: < 0.0316 µM
Second compound 0.0949 µM
  IC50: < 0.0316 µM
Second compound 0.3 µM
  IC50: < 0.0316 µM
[1]
  viability, T/C: 22.3%
[2]
  viability, T/C: 23.9%
[3]
  viability, T/C: 24.1%
[4]
  viability, T/C: 24.3%
[5]
  viability, T/C: 26%
[6]
  viability, T/C: 29.7%
[7]
  viability, T/C: 24%
[8]
  viability, T/C: 20.8%
[9]
  viability, T/C: 24.2%
[10]
  viability, T/C: 25.1%
[11]
  viability, T/C: 24.6%
[12]
  viability, T/C: 30.1%
[13]
  viability, T/C: 21.4%
[14]
  viability, T/C: 26.1%
[15]
  viability, T/C: 21.9%
[16]
  viability, T/C: 24.4%
[17]
  viability, T/C: 22.6%
[18]
  viability, T/C: 30.1%
[19]
  viability, T/C: 23.1%
[20]
  viability, T/C: 23%
[21]
  viability, T/C: 23.6%
[22]
  viability, T/C: 27.4%
[23]
  viability, T/C: 20.1%
[24]
  viability, T/C: 31%
[25]
  viability, T/C: 21.5%
[26]
  viability, T/C: 22.3%
[27]
  viability, T/C: 26.5%
[28]
  viability, T/C: 27.9%
[29]
  viability, T/C: 17.9%
[30]
  viability, T/C: 28.8%
[31]
  viability, T/C: 22.5%
[32]
  viability, T/C: 23.4%
[33]
  viability, T/C: 23%
[34]
  viability, T/C: 26.1%
[35]
  viability, T/C: 20.8%
[36]
  viability, T/C: 25.9%

## CCC(CC)c1cc(NC2CCC(N)C2)n2nccc2n1 (stereo not drawn) + CCn1c(-c2cccnc2C(C)OC)c2c3cc(ccc31)N1CCOC(CC(NC(=O)C(C(C)C)N(C)C(=O)C3(F)CCN(C(=O)C#CC(C)(C)N(C)C)CC3)C(=O)N3CCCC(N3)C(=O)OCC(C)(C)C2)C1
Second compound 0.000949 µM
  IC50: < 0.0316 µM
Second compound 0.003 µM
  IC50: < 0.0316 µM
Second compound 0.00949 µM
  IC50: < 0.0316 µM
Second compound 0.03 µM
  IC50: < 0.0316 µM
Second compound 0.0949 µM
  IC50: < 0.0316 µM
Second compound 0.3 µM
  IC50: < 0.0316 µM
[1]
  viability, T/C: 24.2%
[2]
  viability, T/C: 25.9%
[3]
  viability, T/C: 22.9%
[4]
  viability, T/C: 31.1%
[5]
  viability, T/C: 14.9%
[6]
  viability, T/C: 32.4%
[7]
  viability, T/C: 23.2%
[8]
  viability, T/C: 24.3%
[9]
  viability, T/C: 23%
[10]
  viability, T/C: 29.3%
[11]
  viability, T/C: 12.1%
[12]
  viability, T/C: 39%
[13]
  viability, T/C: 25.1%
[14]
  viability, T/C: 23.2%
[15]
  viability, T/C: 24.5%
[16]
  viability, T/C: 31.1%
[17]
  viability, T/C: 13.7%
[18]
  viability, T/C: 40.9%
[19]
  viability, T/C: 23%
[20]
  viability, T/C: 25.1%
[21]
  viability, T/C: 27.3%
[22]
  viability, T/C: 33.5%
[23]
  viability, T/C: 14.6%
[24]
  viability, T/C: 45%
[25]
  viability, T/C: 21.5%
[26]
  viability, T/C: 24.5%
[27]
  viability, T/C: 29%
[28]
  viability, T/C: 32.5%
[29]
  viability, T/C: 16.1%
[30]
  viability, T/C: 48.7%
[31]
  viability, T/C: 23.3%
[32]
  viability, T/C: 26.9%
[33]
  viability, T/C: 31.1%
[34]
  viability, T/C: 33.1%
[35]
  viability, T/C: 13.1%
[36]
  viability, T/C: 44.8%

## Cc1nc(N2CCC3(CC2)COC(C)C3N)c(CO)nc1Sc1ccnc(N)c1Cl (stereo not drawn) + CCn1c(-c2cccnc2C(C)OC)c2c3cc(ccc31)N1CCOC(CC(NC(=O)C(C(C)C)N(C)C(=O)C3(F)CCN(C(=O)C#CC(C)(C)N(C)C)CC3)C(=O)N3CCCC(N3)C(=O)OCC(C)(C)C2)C1
Second compound 0.000949 µM
  IC50: < 0.0316 µM
Second compound 0.003 µM
  IC50: < 0.0316 µM
Second compound 0.00949 µM
  IC50: < 0.0316 µM
Second compound 0.03 µM
  IC50: < 0.0316 µM
Second compound 0.0949 µM
  IC50: < 0.0316 µM
Second compound 0.3 µM
  IC50: < 0.0316 µM
[1]
  viability, T/C: 21.6%
[2]
  viability, T/C: 20.3%
[3]
  viability, T/C: 13.3%
[4]
  viability, T/C: 18.1%
[5]
  viability, T/C: 19.1%
[6]
  viability, T/C: 14.4%
[7]
  viability, T/C: 21.7%
[8]
  viability, T/C: 20.4%
[9]
  viability, T/C: 14.2%
[10]
  viability, T/C: 17.5%
[11]
  viability, T/C: 18.1%
[12]
  viability, T/C: 13.7%
[13]
  viability, T/C: 20.1%
[14]
  viability, T/C: 16.8%
[15]
  viability, T/C: 16.8%
[16]
  viability, T/C: 18.4%
[17]
  viability, T/C: 15.7%
[18]
  viability, T/C: 15.6%
[19]
  viability, T/C: 19.7%
[20]
  viability, T/C: 19%
[21]
  viability, T/C: 17.5%
[22]
  viability, T/C: 15.7%
[23]
  viability, T/C: 13.1%
[24]
  viability, T/C: 17.6%
[25]
  viability, T/C: 21.4%
[26]
  viability, T/C: 20.7%
[27]
  viability, T/C: 19.9%
[28]
  viability, T/C: 17.3%
[29]
  viability, T/C: 15.2%
[30]
  viability, T/C: 19.6%
[31]
  viability, T/C: 22.1%
[32]
  viability, T/C: 20.9%
[33]
  viability, T/C: 20.6%
[34]
  viability, T/C: 18.3%
[35]
  viability, T/C: 18.8%
[36]
  viability, T/C: 23.2%

## NC1c2ccccc2OC12CCN(c1cnc3c(N4CCCc5ncccc54)n[nH]c3n1)CC2 (stereo not drawn) + CCn1c(-c2cccnc2C(C)OC)c2c3cc(ccc31)N1CCOC(CC(NC(=O)C(C(C)C)N(C)C(=O)C3(F)CCN(C(=O)C#CC(C)(C)N(C)C)CC3)C(=O)N3CCCC(N3)C(=O)OCC(C)(C)C2)C1
Second compound 0.000949 µM
  IC50: < 0.0316 µM
Second compound 0.003 µM
  IC50: < 0.0316 µM
Second compound 0.00949 µM
  IC50: < 0.0316 µM
Second compound 0.03 µM
  IC50: < 0.0316 µM
Second compound 0.0949 µM
  IC50: < 0.0316 µM
Second compound 0.3 µM
  IC50: < 0.0316 µM
[1]
  viability, T/C: 18.5%
[2]
  viability, T/C: 17.7%
[3]
  viability, T/C: 12.8%
[4]
  viability, T/C: 17.6%
[5]
  viability, T/C: 16.6%
[6]
  viability, T/C: 13.9%
[7]
  viability, T/C: 16.5%
[8]
  viability, T/C: 15.7%
[9]
  viability, T/C: 15.1%
[10]
  viability, T/C: 15.9%
[11]
  viability, T/C: 17.1%
[12]
  viability, T/C: 13.5%
[13]
  viability, T/C: 17.8%
[14]
  viability, T/C: 15.3%
[15]
  viability, T/C: 17.9%
[16]
  viability, T/C: 18.3%
[17]
  viability, T/C: 16.7%
[18]
  viability, T/C: 15.4%
[19]
  viability, T/C: 19.2%
[20]
  viability, T/C: 17.6%
[21]
  viability, T/C: 18.8%
[22]
  viability, T/C: 17.1%
[23]
  viability, T/C: 16.1%
[24]
  viability, T/C: 20.3%
[25]
  viability, T/C: 19.7%
[26]
  viability, T/C: 19.4%
[27]
  viability, T/C: 19%
[28]
  viability, T/C: 18.9%
[29]
  viability, T/C: 16%
[30]
  viability, T/C: 20.2%
[31]
  viability, T/C: 20.2%
[32]
  viability, T/C: 20.5%
[33]
  viability, T/C: 20.8%
[34]
  viability, T/C: 18.2%
[35]
  viability, T/C: 18.6%
[36]
  viability, T/C: 22.6%
